Format in all cases: in vivo
Data set [1] deals with Cytochrome P450 2D (gene expression). Put plainly: Canine array gene expression profile of liver from dog dosed with erythromycin estolate. The following applies: dog, liver, 100 mg/kg. As for the experimental part:
(§1) For liver or kidney, about 0.15-0.20 g of tissue was weighed and placed in a 15 ml conical tube. All tissue were kept on dry ice when other samples were being weighed.
(§2) About 3.8 ml of RLT buffer was added to the tube containing the sample. The RLT buffer® from Qiagen can be prepared beforehand by adding 10 μl betamercaptoethanol to each 1.0 ml of lysis buffer needed. The tissue was homogenized using the rotor-stator homogenizer for 45 seconds. A IKA Ultra Turrax T25 homogenizer set at speed 4 with the S25N-10G dispersing element can be used. Alternatively, a Virtishear Cyclone 750W rotor/stator homogenizer (Virtis item #278077) can be used with the 7 mm microfine sawtooth shaft and generator (195 mm long with a processing range of 0.25 ml to 20 ml, item #372718). After homogenization, samples were stored on ice until all samples were homogenized. To clean the homogenizing tip between samples, the tip was first run for a few seconds in 95% ethanol and then rinsed by squirting with fresh 95% ethanol. This process was repeated with nanopure water.
(§3) The tissue lysate was centrifuged at room temperature for 10 minutes at 3700-3800 rpm in a Beckman GS-6 (or equivalent) centrifuge to remove nuclei thus reducing DNA contamination.
(§4) The supernatant of the lysate was transferred to a clean 15 ml conical tubes containing an equal volume of 70% EtOH in DEPC treated H2O, being careful not to include any of the pellet or fatty layer and mixed. About 3.8 ml of sample was added to the RNeasy spin column placed in a 15 ml centrifuge tube and centrifuged at 3000×g (3690-3710 rpm, Beckman GS-6) for 5 min. The flow-through was discarded. The remaining sample was added to the appropriate column and spun at 3000×g for 5 minutes and the flow-through was discarded.
(§5) About 4.0 ml of Buffer RW1 (Qiagen®) was added to the column and spun as before then about 2.5 ml of buffer RPE (Qiagen®) was added to column and spun at 3000×g (3690-3710 rpm, Beckman GS-6) for 2 minutes. In this example, RPE buffer was supplied as a concentrate so 4 volumes of 95% EtOH was added before use. For the midi kit, about 220 ml of 95% EtOH would be added to 55 ml of RPE. Another 2.5 ml of buffer RPE was added and spun for 5 minutes to also dry out column. The column, including the tip, should be dry for the next elution step.
(§6) For elution, the column that has the RNA bound to a clean 15 ml tube was transferred and 200 μl of RNase-free water was added to the column, allowed to sit for 1 minute, and spun for 3 minutes at 3000×g (3690-3710 rpm, Beckman GS6). This step was repeated into the same tube but with 200 μl RNase-free water.
(§7) Liver and kidney organs were isolated from a dog which was dosed with erythromycin esolate at 100 mg/kg/day for 2 or 10 days. The dog was euthanized 16 hours after the last dosage and the organs were harvested according to standard sterile procedure. RNA was isolated from the kidney and liver as detailed in Example 1. cDNA was made from the RNA and used as probes as detailed in the Examples above.

Data set [2] deals with Cytochrome P450 2B (gene expression). The data set is described as above. The following applies: dog, liver, 100 mg/kg. As for the experimental part: as §1, §2, §3, §4, §5, §6, §7
Data set [3] has as its system canine liver gene expression. Described as above. The following applies: Canis lupus familiaris, 240 h, 10 days. As to the method:
as §1, §2, §3, §4, §5, §6, §7

Data set [4] concerns Cytochrome P450 2C21 (gene expression). The data set is described as above. The following applies: dog, liver, 100 mg/kg. As for the experimental part:
as §1, §2, §3, §4, §5, §6, §7

Data set [5] has as its system Cytochrome P450 2D (gene expression). Put plainly: Canine array gene expression profile of kidney from dog dosed with erythromycin estolate. The settings on record: dog, kidney, 100 mg/kg. As for the experimental part: as §1, §2, §3, §4, §5, §6, §7
Data set [6] relates to Multidrug resistant protein-1. The description is as above. The following applies: dog, kidney, 100 mg/kg. As to the method:
as §1, §2, §3, §4, §5, §6, §7

In data set [7] the test system is Glutathione S-transferase alpha subunit. The data set is described as above. The settings on record: dog, kidney, 100 mg/kg. As for the experimental part:
as §1, §2, §3, §4, §5, §6, §7

Another data set deals with Cytochrome P450 2C41. The description is as above. The settings on record: dog, kidney, 100 mg/kg. As for the experimental part:
as §1, §2, §3, §4, §5, §6, §7

The next data set has as its system Cytochrome P450 2C21. The description is as above. The settings on record: dog, kidney, 100 mg/kg. As to the method: as §1, §2, §3, §4, §5, §6, §7
Another data set concerns Glucose transporter. Described as above. The settings on record: dog, kidney, 100 mg/kg. As for the experimental part: as §1, §2, §3, §4, §5, §6, §7
The test system of the next data set is Cytochrome P450 3A. The data set is described as above. The settings on record: dog, kidney, 100 mg/kg. As to the method: as §1, §2, §3, §4, §5, §6, §7

Read-outs that look alike come from different tables or passages of the source.

The source of these data is patent US7091033B2, “Array of toxicologically relevant canine genes and uses thereof” (Phase-1 Molecular Toxicology, Inc., priority 2000, dated 2006).

In the case of `CCC(=O)O[C@H]1[C@H](O[C@@H]2[C@@H](C)[C@H](O[C@H]3C[C@@](C)(OC)[C@@H](O)[C@H](C)O3)[C@@H](C)C(=O)O[C@H](CC)[C@@](C)(O)[C@H](O)[C@@H](C)C(=O)[C@H](C)C[C@@]2(C)O)O[C@H](C)C[C@@H]1N(C)C` [erythromycin estolate], the fold induction at 10 days in data set [1] stood at 1.1; in data set [2], 1.9; in data set [4], 1.3; in [5], 1.1; in [6] it was 1.2; in data set [7], 1.1. The fold induction at 10 days with Cytochrome P450 2C41 is 1.2; in the data set with Cytochrome P450 2C21, 1.1; in the data set with Glucose transporter, 1.1; in the data set with Cytochrome P450 3A it was 1.3. The fold induction at 100 mg/kg stood at 1.5 in [3] (read-out: Alkaline phosphatase fold induction); 1.5 in [3] (read-out: Angiopoietin-related protein 3 (ANGPTL3) fold induction); 1.2 in [3] (read-out: BR-cadherin fold induction); 1.5 in data set [3] (read-out: BRCA1 fold induction); 1.5 in [3] (read-out: Beta-glucuronidase fold induction); 1.1 in data set [3] (read-out: Canis familiaris mitochondrion, complete genome fold induction). Also, the fold induction at 100 mg/kg in data set [3] (read-out: Catalase fold induction) worked out at 1.4; in [3] (read-out: Caveolin-2 fold induction) it was 1.2; in [3] (read-out: Cubilin fold induction), 1.1; in data set [3] (read-out: Cytochrome c oxidase subunit II fold induction) it was 1.6; in data set [3] (read-out: Cytochrome c oxidase subunit VIIaL fold induction) it was 1; in data set [3] (read-out: c-erb B-2 fold induction), 1.3.
